# Columns and labels:
# Format in all cases: cell-based
# [1] = test system: Bacillus cereus (ATCC 11778); test: MIC susceptibility test, microdilution with MTT readout; details: Bacillus ceres ATCC11778
# Method: (§1) Evaluation of vancomycin analogs is performed using in vitro susceptibility tests and a time-kill assay. [NCCL Standard, 1993] In susceptibility tests, five strains of bacteria, two of the most important: Staphylococcus aureus and Enterococcus faecalis (both susceptible and resistant strains), and Bacillus cereus are chosen and bacteria viability remaining in each well is evaluated using a colorimetric assay based on the tetrazolium salt 3-(4,5-dimethyl-2-thiazolyl)-2,5-diphenyl-2H tetrazolium bromide (MTT) and minimum inhibitory concentration (MIC) values are determined as μg/mL. [Mosmann, T. (1983); Damour, O., et al. (1992); Mikami, Y., et al. (1994)] This assay gives susceptibility information quickly, efficiently, and clearly.
# (§2) All strains [Bacillus cereus (ATCC® 11778), Staphylococcus aureus (ATCC® 29213), Methicillin resistant Staphylococcus aureus (ATCC® 33591), Enterococcus faecalis (ATCC® 29212), and gentamicin, streptmycin, vancomycin resistant Enterococcus faecalis (ATCC® 51299), are purchased from REMEL (Lenexa, Kans.).
# (§3) MICs are determined by the microdilution method using 96-well microplates. Samples are suspended with Cation Adjusted (20 to 25 mg of Ca^2+/mL and 10 to […] of Mg^2+) Mueller-Hinton broth (Difco Laboratories, Detroit, Mich.) and are two-fold diluted from 5 μg/mL to […] on microplates (12 step dilution). To each well, which contained 100 μL of cell suspension (10^6 CFU/mL), 100 μL of antibiotic solution is added and the plates are incubated at 37° C. for 24 h. 50 μL of MTT solution (1 mg/mL) is added to each well, then the plates are incubated under the same conditions (incubation time; 30 min for Bacillus cereus, Staphylococcus aureus, and Methicillin resistant Staphylococcus aureus; 2 hours for Enterococcus faecalis and Gentamicin, Streptmycin, Vancomycin Enterococcus faecalis). MTT is a yellow tetrazolium salt that is reduced by mitochondrial enzymes in viable cells to an insoluble blue formazan product. MIC values are evaluated by observing the lowest drug concentration to inhibit bacteria growth.
# [2] = test system: Enterococcus faecalis (ATCC 29212); test: as above; details: Enterococcus faecalis ATCC29212
# Method: as §1, §2, §3
# [3] = test system: Methicillin resistant Staphylococcus aureus (ATCC 33591); test: as above; details: Staphylococcus aureus ATCC3359, Methicillin resistance
# Method: as §1, §2, §3
# [4] = test system: Staphylococcus aureus (ATCC 29213); test: as above; details: Staphylococcus aureus ATCC29213
# Method: as §1, §2, §3
# [5] = test system: gentamicin, streptmycin, vancomycin resistant Enterococcus faecalis (ATCC 51299); test: microbe, parasite or virus in culture; details: Enterococcus faecalis ATCC51299, vancomycin resistance
# Method: as §1, §2, §3
Structure (SMILES),MIC BC [1],MIC EF [2],MIC MRSA [3],MIC SA [4] [mg/L],MIC VREF [5]
"CNC(CC(C)C)C(=O)NC1C(=O)NC(CC(N)=O)C(=O)NC2C(=O)NC3C(=O)NC(C(=O)NC(C(=O)O)c4cc(O)cc(O)c4-c4cc3ccc4O)C(O)c3ccc(c(Cl)c3)Oc3cc2cc(c3OC2OC(CSCC(=O)O)C(O)C(O)C2OC2CC(C)(N)C(O)C(C)O2)Oc2ccc(cc2Cl)C1O (centres unmarked) [LXXI, Glucose-C6-thioacetato Vancomycin]",5.0< μg/mL,5.0< μg/mL,5.0< μg/mL,5.0,5.0< μg/mL
"CCCCCCCCCCNCC1OC(Oc2c3cc4cc2Oc2ccc(cc2Cl)C(O)C2NC(=O)C(NC(=O)C4NC(=O)C(CC(N)=O)NC(=O)C(NC(=O)C(CC(C)C)NC)C(O)c4ccc(c(Cl)c4)O3)c3ccc(O)c(c3)-c3c(O)cc(O)cc3C(C(=O)O)NC2=O)C(OC2CC(C)(N)C(O)C(C)O2)C(O)C1O (centres unmarked) [XXXI, Glucose-C6-N-decyl Vancomycin]",1.3 µg/mL,0.32 µg/mL,1.3 µg/mL,1.3,2.5 µg/mL
"CNC(=S)NCC1OC(Oc2c3cc4cc2Oc2ccc(cc2Cl)C(O)C2NC(=O)C(NC(=O)C4NC(=O)C(CC(N)=O)NC(=O)C(NC(=O)C(CC(C)C)NC)C(O)c4ccc(c(Cl)c4)O3)c3ccc(O)c(c3)-c3c(O)cc(O)cc3C(C(=O)O)NC2=O)C(OC2CC(C)(N)C(O)C(C)O2)C(O)C1O (centres unmarked) [XXXII, Glucose-C6-N-thiocarbonyl Methylamino Vancomycin]",1.9 µg/mL,1.3 µg/mL,2.5 µg/mL,1.9,5.0 µg/mL
"CNC(CC(C)C)C(=O)NC1C(=O)NC(CC(N)=O)C(=O)NC2C(=O)NC3C(=O)NC(C(=O)NC(C(=O)O)c4cc(O)cc(O)c4-c4cc3ccc4O)C(O)c3ccc(c(Cl)c3)Oc3cc2cc(c3OC2OC(CNC(=O)c3cccs3)C(O)C(O)C2OC2CC(C)(N)C(O)C(C)O2)Oc2ccc(cc2Cl)C1O (centres unmarked) [XXXIII, Glucose-C6-N-(thiophene-2-carboxamide) Vancomycin]",1.3 µg/mL,1.3 µg/mL,2.5 µg/mL,1.3,5.0 µg/mL
"CNC(CC(C)C)C(=O)NC1C(=O)NC(CC(N)=O)C(=O)NC2C(=O)NC3C(=O)NC(C(=O)NC(C(=O)O)c4cc(O)cc(O)c4-c4cc3ccc4O)C(O)c3ccc(c(Cl)c3)Oc3cc2cc(c3OC2OC(CNC(=O)CN)C(O)C(O)C2OC2CC(C)(N)C(O)C(C)O2)Oc2ccc(cc2Cl)C1O (centres unmarked) [XXXIV, Glucose-C6-N-(glycine-carboxamide) Vancomycin]",5.0 µg/mL,2.5 µg/mL,2.5 µg/mL,1.9,5.0< μg/mL
"CCCCCCCCCCCCCC(=O)NCC1OC(Oc2c3cc4cc2Oc2ccc(cc2Cl)C(O)C2NC(=O)C(NC(=O)C4NC(=O)C(CC(N)=O)NC(=O)C(NC(=O)C(CC(C)C)NC)C(O)c4ccc(c(Cl)c4)O3)c3ccc(O)c(c3)-c3c(O)cc(O)cc3C(C(=O)O)NC2=O)C(OC2CC(C)(N)C(O)C(C)O2)C(O)C1O (centres unmarked) [XXXV, Glucose-C6-N-myristoyl Vancomycin]",3.8 µg/mL,0.015 µg/mL,1.3 µg/mL,2.5,0.16 µg/mL
"CNC(CC(C)C)C(=O)NC1C(=O)NC(CC(N)=O)C(=O)NC2C(=O)NC3C(=O)NC(C(=O)NC(C(=O)O)c4cc(O)cc(O)c4-c4cc3ccc4O)C(O)c3ccc(c(Cl)c3)Oc3cc2cc(c3OC2OC(CNC(=O)c3ccccc3I)C(O)C(O)C2OC2CC(C)(N)C(O)C(C)O2)Oc2ccc(cc2Cl)C1O (centres unmarked) [XXXVI, Glucose-C6-N-2-iodobenzoyl Vancomycin]",1.3 µg/mL,1.3 µg/mL,2.5 µg/mL,1.3,2.5 µg/mL

# — patent publication US6710168B1, “Glycopeptide antibiotics, combinatorial libraries of glycopeptide antibiotics and methods of producing same” (The Trustees of the University of Princeton, priority 1999, dated 2004)
